Results as given in article PMC12175220, “Eco-Friendly Solvents for Bioactives: Solubilization of Hydroxycinnamic Acids in Glycerol-Derived Ethers” (ACS Sustainable Chemistry & Engineering, 2025).
In brackets after ≈: the same amount, converted by molar mass.

Tests used:
[1] = Solubility of hydroxycinnamic acids in pure solvents (orbital shaker 72 h, HPLC); type: physicochemical; settings: for Increase of solubility in EGMME with respect to 101: EGMME vs 101; for solubility at 72 h: organic solvent or mixture, thermodynamic from solid
Procedure: (§1) Amber vials were used to protect the samples from light. To ensure reliability, all of the experiments were performed in triplicate. The samples were shaken in a biological orbital shaker at 100 rpm for 72 h at 25 °C.
Before the samples were measured, they must be sonicated to avoid the formation of dimers and ensure the uniformity of the peaks.
(§2) The column used for the quantification was a C18 Phenomenex Luna ([…] × 5 μm).
Calibration curves were generated using solutions varying in the concentrations of the three studied acids within the HPLC detection range (0–0.006 mg). These solutions were sonicated to ensure uniformity of the peaks and then injected into the HPLC. The linearity of the curves was evaluated by linear regression analysis. Details of the calibrations are gathered in the Supporting Information (Figures S27–S29).
Following this period, the solution was checked for saturation and filtered. The filtered solution was then immediately diluted for hydroxycinnamic acid quantification by HPLC.

[2] = physchem; settings: for solubility at 72 h: 25 °C, thermodynamic from solid, Solubility (mg/mL)
Procedure: as §1, §2

[3] = comparison solvents; cited from earlier work
[4] = pure 1,3-propylene glycol (PG), 25 °C, solvent PG (1,3-propylene glycol), 298 K, read-out: Solubility
[5] = pure ethylene glycol (EG), 25 °C, solvent EG (ethylene glycol), 298 K, read-out: Solubility
[6] = pure solvent 3F00, 25 °C, solvent 3F00, Tables S-1 to S-3, read-out: Solubility
[7] = pure solvent 3i00, 25 °C, solvent 3i00, Tables S-1 to S-3, read-out: Solubility
[8] = pure solvent 3i03i, 25 °C, solvent 3i03i, 298 K, read-out: Solubility
[9] = pure solvent 100, 25 °C, solvent 100, Tables S-1 to S-3, read-out: Solubility
[10] = pure solvent 101, 25 °C, solvent 101, Tables S-1 to S-3, read-out: Solubility
[11] = pure solvent 111, 25 °C, solvent 111, Tables S-1 to S-3, read-out: Solubility
[12] = pure solvent 111 triether, 25 °C, solvent 111 triether, 298 K, read-out: Solubility
[13] = pure solvent 200, 25 °C, solvent 200, Tables S-1 to S-3, read-out: Solubility
[14] = pure solvent 202, 25 °C, solvent 202, 298 K, read-out: Solubility
[15] = pure solvent 202, 25 °C, solvent 202, Tables S-1 to S-3, read-out: Solubility
[16] = pure solvent 300, 25 °C, solvent 300, Tables S-1 to S-3, read-out: Solubility
[17] = pure solvent 400, 25 °C, solvent 400, Tables S-1 to S-3, read-out: Solubility
[18] = pure solvent 400, 25 °C, solvent 400, Tables S-13 to S-15, read-out: Experimental solubility
[19] = pure solvent 404, 25 °C, solvent 404, Tables S-1 to S-3, read-out: Solubility
[20] = pure solvent EG, 25 °C, solvent EG, Tables S-1 to S-3, read-out: Solubility
[21] = pure solvent EGDME, 25 °C, solvent EGDME, Tables S-1 to S-3, read-out: Solubility
[22] = pure solvent EGMME, 25 °C, solvent EGMME, Tables S-1 to S-3, read-out: Solubility
[23] = pure solvent PG, 25 °C, solvent PG, Tables S-1 to S-3, read-out: Solubility

Increase of solubility in EGMME with respect to 101 [1] [%] | solubility at 72 h [1, 4] [mg/mL] | solubility at 72 h [1, 5] [mg/mL] | solubility at 72 h [1, 6] [mg/mL] | solubility at 72 h [1, 7] [mg/mL] | solubility at 72 h [1, 8] [mg/mL] | solubility at 72 h [1, 9] [mg/mL] | solubility at 72 h [1, 10] [mg/mL] | solubility at 72 h [1, 11] [mg/mL] | solubility at 72 h [1, 12] [mg/mL] | solubility at 72 h [1, 13] [mg/mL] | solubility at 72 h [1, 14] [mg/mL] | solubility at 72 h [1, 15] [mg/mL] | solubility at 72 h [1, 16] [mg/mL] | solubility at 72 h [1, 17] [mg/mL] | solubility at 72 h [1, 18] [mg/mL] | solubility at 72 h [1, 19] [mg/mL] | solubility at 72 h [1, 20] [mg/mL] | solubility at 72 h [1, 21] [mg/mL] | solubility at 72 h [1, 22] [mg/mL] | SMILES | further results
21 | 36.5 (≈ 203 mM) | 55.8 (≈ 310 mM) | 5.5 (≈ 30.5 mM) | 45.8 (≈ 254 mM) | 25.2 (≈ 140 mM) | 75.7 (≈ 420 mM) | 81.1 (≈ 450 mM) | 32.5 (≈ 180 mM) | 32.5 (≈ 180 mM) | 61.9 (≈ 344 mM) | 34 (≈ 189 mM) | 12 (≈ 66.6 mM) | 44.5 (≈ 247 mM) | 33.5 (≈ 186 mM) | 33.4 (≈ 185 mM) | 11.1 (≈ 61.6 mM) | 42 (≈ 233 mM) | 32.5 (≈ 180 mM) | 98.9 (≈ 549 mM) | O=C(O)/C=C/c1ccc(O)c(O)c1 [Caffeic acid] | solubility at 72 h ([1]; pure ethylene glycol dimethyl ether (EGDME), 25 °C, solvent EGDME (ethylene glycol dimethyl ether), 298 K, read-out: Solubility): 32.5 mg/mL (≈ 180 mM); solubility at 72 h ([1]; pure solvent 3i03i, 25 °C, solvent 3i03i, Tables S-1 to S-3, read-out: Solubility): 25.1 mg/mL (≈ 139 mM); solubility at 72 h ([1]; pure solvent 111, 25 °C, solvent 111, Tables S-13 to S-15, read-out: Experimental solubility): 32.5 mg/mL (≈ 180 mM); solubility at 72 h ([1]; pure solvent 303, 25 °C, solvent 303, Tables S-1 to S-3, read-out: Solubility): 17.2 mg/mL (≈ 95.5 mM); solubility at 72 h [1, 23]: 27.4 mg/mL (≈ 152 mM); solubility at 72 h [2]: 85 mg/mL (≈ 472 mM); solubility at 72 h ([2]; water): 0.8 mg/mL (≈ 4.44 mM); Increase in the solubility compared to pure 100 ([2]; 72 h): 20%; Increase of solubility in the water/101 mixture compared to the solubility in water ([2]; 72 h): 140 fold
45 | 91.3 (≈ 556 mM) | 103 (≈ 627 mM) | 17.2 (≈ 105 mM) | 112 (≈ 685 mM) | 85.7 (≈ 522 mM) | 141 (≈ 861 mM) | 176 (≈ 1070 mM) | 110 (≈ 668 mM) | 109 (≈ 664 mM) | 137 (≈ 832 mM) | 122 (≈ 743 mM) | 120 (≈ 731 mM) | 113 (≈ 687 mM) | 95.1 (≈ 579 mM) | 93.1 (≈ 567 mM) | 49.3 (≈ 300 mM) | 103 (≈ 627 mM) | 161 (≈ 980 mM) | 256 (≈ 1560 mM) | O=C(O)/C=C/c1ccc(O)cc1 [Coumaric acid, coumaric acid] | solubility at 72 h ([1]; pure solvent 3F00, 25 °C, solvent 3F00, 298 K, read-out: Solubility): 19.6 mg/mL (≈ 119 mM); solubility at 72 h ([1]; pure solvent 3F03F, 25 °C, solvent 3F03F, 298 K, read-out: Solubility): 2 mg/mL (≈ 12.2 mM); solubility at 72 h ([1]; pure solvent 3F03F, 25 °C, solvent 3F03F, Tables S-1 to S-3, read-out: Solubility): 2.7 mg/mL (≈ 16.4 mM); solubility at 72 h ([1]; pure solvent 100, 25 °C, solvent 100, Tables S-13 to S-15, read-out: Experimental solubility): 142 mg/mL (≈ 863 mM); solubility at 72 h ([1]; pure solvent 101, 25 °C, solvent 101, 298 K, read-out: Solubility): 176 mg/mL (≈ 1070 mM); solubility at 72 h ([1]; pure solvent 101, 25 °C, solvent 101, Tables S-13 to S-15, read-out: Experimental solubility): 177 mg/mL (≈ 1080 mM); solubility at 72 h ([1]; pure solvent 303, 25 °C, solvent 303, 298 K, read-out: Solubility): 74.6 mg/mL (≈ 454 mM); solubility at 72 h [1, 23]: 91.1 mg/mL (≈ 555 mM); Solubility ([1]; solvent EG (ethylene glycol), 298 K): 102 mg/mL (≈ 621 mM); solubility at 72 h [2]: 203 mg/mL (≈ 1240 mM); solubility at 72 h ([2]; water): 0.4 mg/mL (≈ 2.44 mM); Increase of solubility in the water/101 mixture compared to the solubility in water ([2]; 72 h): 500 fold
 |  |  |  |  |  |  |  |  |  |  |  |  |  |  |  |  |  |  |  | OCC(O)CO [glycerol] | Viscosity [3]: 1200 cP
